Converted amounts (≈) assume the structure as drawn.
assay: Antioxidant activity assessed as DPPH radical scavenging activity incubated for 30 mins under dark condition; format: functional

| IC50 [µg/mL] | Structure (SMILES) |
| --- | --- |
| 78.4 (≈ 288 µM) | COc1cc(O)c2c(O)c3c(=O)oc(C)cc3cc2c1 |
| 6.48 (≈ 36.8 µM) | O=C1O[C@H]([C@@H](O)CO)C(O)=C1O [ASCORBIC ACID] |

| Structure (SMILES) | IC50 [µg/mL] |
| --- | --- |
| COc1cc(O)c2c(O)c3c(=O)cc(C)oc3cc2c1 [RUBROFUSARIN] | 3.03 (≈ 11.1 µM) |

assay: Inhibition of baker's yeast alpha-glucosidase using PNPG as substrate preincubated for 15 mins followed by substrate addition and measured after 15 mins; parameters: species or system Saccharomyces cerevisiae

| IC50 [µg/mL] | Structure (SMILES) |
| --- | --- |
| 120.65 (≈ 365 µM) | COc1c(C)cc2c(c1O)C(=O)c1c(cc(O)c(OC)c1O)C2=O |
| 80.01 (≈ 294 µM) | COc1cc(O)c2c(O)c3c(=O)oc(C)cc3cc2c1 |
| 164.81 (≈ 460 µM) | COc1cc2c(c(O)c1OC)C(=O)c1c(cc(C)c(OC)c1OC)C2=O |
| 107.81 (≈ 326 µM) | COc1c(O)cc2c(c1O)C(=O)c1c(cc(C)c(O)c1OC)C2=O [AURANTIOOBTUSIN] |
| 50.6 (≈ 199 µM) | Cc1cc(O)c2c(c1)C(=O)c1cccc(O)c1C2=O [CHRYSOPHANOL] |
| 183.91 (≈ 585 µM) | COc1ccc2c(c1O)C(=O)c1c(cc(C)c(O)c1OC)C2=O |
| 60.09 (≈ 126 µM) | Cc1cc(O)c2c(c1)C(C1c3cccc(O)c3C(=O)c3c(O)cc(C)cc31)c1cccc(O)c1C2=O (stereo not given) |
| < 5.05 | C[C@H]1O[C@H](O[C@H]2[C@H](O)[C@@H](O)[C@@H](O[C@H]3[C@H](O)[C@@H](O)C(O)O[C@@H]3CO)O[C@@H]2CO)[C@H](O)[C@@H](O)[C@@H]1N[C@H]1C=C(CO)[C@@H](O)[C@H](O)[C@H]1O (stereo not given in full) [ACARBOSE] |
| 144.64 (≈ 509 µM) | COc1c(O)c(C)cc2c1C(=O)c1c(O)cccc1C2=O [OBTUSIFOLIN] |
| 117.94 (≈ 415 µM) | COc1cc(O)cc2c1C(=O)c1c(O)cc(C)cc1C2=O [QUESTIN] |
| 22.57 (≈ 79.4 µM) | COc1cc(O)c2c(c1)C(=O)c1cc(C)cc(O)c1C2=O [PHYSCION] |

| Structure (SMILES) | IC50 [µg/mL] |
| --- | --- |
| COc1cc(O)c2c(O)c3c(=O)cc(C)oc3cc2c1 [RUBROFUSARIN] | 162.04 (≈ 595 µM) |

From ChEMBL document CHEMBL4390706, “Chemical constituents from the seeds of Cassia obtusefolia and their in vitro α-glucosidase inhibitory and antioxidant activities” (Bioorg Med Chem Lett, 2019)
